Test results: US6395896B2, “Pyridazine derivatives, manufacturing method and related composition” (Shiseido Co., Ltd., priority 1999, dated 2002)

How the values were obtained:
[1] = Colorant stabilization effect (photostabilizer, sunlight exposure); parameters: key to Sunlight exposure (80 MJ) Appearance: A: No change; B: No almost change; C: Yes change; key to Sunlight exposure (80 MJ) ΔE: ΔE color difference (Lab) vs. color before sunlight exposure; settings: photostabilizer 0.05 wt %
Method: First of all, the photostabilization effect and appearance change of a composition in each pigment were studied by the following evaluation formulation.
Each test sample was prepared. Observation of appearance change (visual evaluation) and measurement of color difference (ΔE) were carried out in samples exposed to sunlight exposure (around 80 MJ).
Color difference was measured by Lab coordinate system with spectrophotometer. Color difference was calculated on the basis of the color before sunlight exposure. Namely, from measured value (L1,a1,b1) before sunlight exposure, color difference (ΔE) was calculated by following formula.

[2] = Perfume stabilization effect (photostabilizer, sunlight exposure, judgement by perfumier); parameters: key to Sunlight exposure (80 MJ) Smell evaluation / Sunlight exposure (80 MJ) evaluation: A: No change; B: No almost change; C: Yes change
Method: Next, the photostabilization effect for each perfume was studied by the following evaluation formulation.
Each test sample was prepared. Change of smell of sample exposed to sunlight (80 MJ) was observed (judgement by perfumier).

[3] = Drug stabilization effect (photostabilizer, sunlight exposure); parameters: key to Sunlight exposure (80 MJ) Appearance: A: No change; B: No almost change; C: Yes change; settings: photostabilizer 0.05, amounts wt %
Method: Next, the photo stabilization effect and changes in appearance in drug compositions were studied according to the following evaluation formulation.
Each test sample was prepared. Appearance changes of the samples exposed to sunlight (80 MJ) was observed (visual evaluation). Also, residual yield was measured by liquid chromatography.

[4] = Base perfume Fruity 0.03 wt %, photostabilizer 0.1 wt %
[5] = Base perfume Muguet 0.03 wt %, photostabilizer 0.05 wt %
[6] = Base perfume Rose 0.03 wt %, photostabilizer 0.05 wt %
[7] = Base perfume Spicy 0.03 wt %, photostabilizer 0.2 wt %
[8] = Base perfume Woody 0.03 wt %, photostabilizer 0.1 wt %
[9] = Natural perfume Jasmine oil 0.03 wt %, photostabilizer 0.05 wt %
[10] = Natural perfume Lavender oil 0.03 wt %, photostabilizer 0.1 wt %
[11] = Natural perfume Neroli oil 0.03 wt %, photostabilizer 0.1 wt %
[12] = Natural perfume Rose oil 0.03 wt %, photostabilizer 0.05 wt %
[13] = Natural perfume Ylang ylang oil 0.03 wt %, photostabilizer 0.2 wt %
[14] = Synthetic perfume Citral 0.03 wt %, photostabilizer 0.1 wt %
[15] = Synthetic perfume Limonene 0.03 wt %, photostabilizer 0.05 wt %
[16] = Synthetic perfume Linalool 0.03 wt %, photostabilizer 0.05 wt %
[17] = Synthetic perfume Linalyl acetate 0.03 wt %, photostabilizer 0.1 wt %
[18] = Synthetic perfume Rose oxide 0.03 wt %, photostabilizer 0.2 wt %
[19] = drug 2-o-α-α-glucopyranosyl-L-ascorbic acid 2.0
[20] = drug Dibutylhydroxytoluene 0.01
[21] = drug Dipotassium glycyrrhizinate 0.05
[22] = drug L-ascorbic acid 2-(dl-α-tocopheryl hydrogen phosphate) potassium salt 0.01

COc1cc(O)c(C(=O)c2ccccc2)cc1S(=O)(=O)[O-].[Na+] [2-Hydroxy-4-methoxybenzophenone-5-sodium sulfonate, reference compound]
Sunlight exposure (80 MJ) Appearance ([1]; Blue No. 1 0.0001 wt %): B | Sunlight exposure (80 MJ) ΔE ([1]; Blue No. 1 0.0001 wt %): 1.67 | Sunlight exposure (80 MJ) Appearance ([1]; Green No. 3 0.0001 wt %): B | Sunlight exposure (80 MJ) ΔE ([1]; Green No. 3 0.0001 wt %): 0.74 | Sunlight exposure (80 MJ) Appearance ([1]; Red No. 106 0.0001 wt %): B | Sunlight exposure (80 MJ) ΔE ([1]; Red No. 106 0.0001 wt %): 0.98 | Sunlight exposure (80 MJ) Appearance ([1]; Red No. 213 0.0001 wt %): B | Sunlight exposure (80 MJ) ΔE ([1]; Red No. 213 0.0001 wt %): 1.28 | Sunlight exposure (80 MJ) Appearance ([1]; Red No. 227 0.0001 wt %): B | Sunlight exposure (80 MJ) ΔE ([1]; Red No. 227 0.0001 wt %): 0.80 | Sunlight exposure (80 MJ) Appearance ([1]; Red No. 401 0.001 wt %): B | Sunlight exposure (80 MJ) ΔE ([1]; Red No. 401 0.001 wt %): 1.39 | Sunlight exposure (80 MJ) Appearance ([1]; Yellow No. 5 0.001 wt %): B | Sunlight exposure (80 MJ) ΔE ([1]; Yellow No. 5 0.001 wt %): 0.78 | Sunlight exposure (80 MJ) Appearance ([1]; Yellow No. 203 0.001 wt %): B | Sunlight exposure (80 MJ) ΔE ([1]; Yellow No. 203 0.001 wt %): 0.76 | Sunlight exposure (80 MJ) Smell evaluation [2, 4]: B | Sunlight exposure (80 MJ) Smell evaluation [2, 5]: B | Sunlight exposure (80 MJ) Smell evaluation [2, 6]: B | Sunlight exposure (80 MJ) Smell evaluation [2, 7]: B | Sunlight exposure (80 MJ) Smell evaluation [2, 8]: B | Sunlight exposure (80 MJ) Smell evaluation [2, 9]: B | Sunlight exposure (80 MJ) Smell evaluation [2, 10]: B | Sunlight exposure (80 MJ) Smell evaluation [2, 11]: B | Sunlight exposure (80 MJ) Smell evaluation [2, 12]: B | Sunlight exposure (80 MJ) Smell evaluation [2, 13]: B | Sunlight exposure (80 MJ) Smell evaluation [2, 14]: B | Sunlight exposure (80 MJ) Smell evaluation [2, 15]: B | Sunlight exposure (80 MJ) Smell evaluation [2, 16]: B | Sunlight exposure (80 MJ) Smell evaluation [2, 17]: B | Sunlight exposure (80 MJ) Smell evaluation [2, 18]: B | Sunlight exposure (80 MJ) Appearance [3, 19]: B | Sunlight exposure (80 MJ) Residual yield [%] [3, 19]: 97.8% | Sunlight exposure (80 MJ) Appearance [3, 20]: B | Sunlight exposure (80 MJ) Residual yield [%] [3, 20]: 94.8% | Sunlight exposure (80 MJ) Appearance [3, 21]: B | Sunlight exposure (80 MJ) Residual yield [%] [3, 21]: 97.5% | Sunlight exposure (80 MJ) Appearance [3, 22]: B | Sunlight exposure (80 MJ) Residual yield [%] [3, 22]: 95.0% | Sunlight exposure (80 MJ) Appearance ([3]; drug Salicylic acid 0.1): B | Sunlight exposure (80 MJ) Residual yield [%] ([3]; drug Salicylic acid 0.1): 98.0%

CCCCCCCCOC(=O)C=Cc1ccc(OC)cc1 [Octyl p-methoxycinnamate, reference compound]
Sunlight exposure (80 MJ) Appearance ([1]; Blue No. 1 0.0001 wt %): C | Sunlight exposure (80 MJ) ΔE ([1]; Blue No. 1 0.0001 wt %): 5.23 | Sunlight exposure (80 MJ) Appearance ([1]; Green No. 3 0.0001 wt %): C | Sunlight exposure (80 MJ) ΔE ([1]; Green No. 3 0.0001 wt %): 1.64 | Sunlight exposure (80 MJ) Appearance ([1]; Red No. 106 0.0001 wt %): C | Sunlight exposure (80 MJ) ΔE ([1]; Red No. 106 0.0001 wt %): 1.95 | Sunlight exposure (80 MJ) Appearance ([1]; Red No. 213 0.0001 wt %): C | Sunlight exposure (80 MJ) ΔE ([1]; Red No. 213 0.0001 wt %): 2.55 | Sunlight exposure (80 MJ) Appearance ([1]; Red No. 227 0.0001 wt %): C | Sunlight exposure (80 MJ) ΔE ([1]; Red No. 227 0.0001 wt %): 1.22 | Sunlight exposure (80 MJ) Appearance ([1]; Red No. 401 0.001 wt %): C | Sunlight exposure (80 MJ) ΔE ([1]; Red No. 401 0.001 wt %): 4.76 | Sunlight exposure (80 MJ) Appearance ([1]; Yellow No. 5 0.001 wt %): C | Sunlight exposure (80 MJ) ΔE ([1]; Yellow No. 5 0.001 wt %): 1.56 | Sunlight exposure (80 MJ) Appearance ([1]; Yellow No. 203 0.001 wt %): C | Sunlight exposure (80 MJ) ΔE ([1]; Yellow No. 203 0.001 wt %): 2.43 | Sunlight exposure (80 MJ) Smell evaluation [2, 4]: C | Sunlight exposure (80 MJ) Smell evaluation [2, 5]: C | Sunlight exposure (80 MJ) Smell evaluation [2, 6]: C | Sunlight exposure (80 MJ) Smell evaluation [2, 7]: C | Sunlight exposure (80 MJ) Smell evaluation [2, 8]: C | Sunlight exposure (80 MJ) Smell evaluation [2, 9]: C | Sunlight exposure (80 MJ) Smell evaluation [2, 10]: C | Sunlight exposure (80 MJ) Smell evaluation [2, 11]: C | Sunlight exposure (80 MJ) Smell evaluation [2, 12]: C | Sunlight exposure (80 MJ) Smell evaluation [2, 13]: C | Sunlight exposure (80 MJ) Smell evaluation [2, 14]: C | Sunlight exposure (80 MJ) Smell evaluation [2, 15]: C | Sunlight exposure (80 MJ) Smell evaluation [2, 16]: C | Sunlight exposure (80 MJ) Smell evaluation [2, 17]: C | Sunlight exposure (80 MJ) Smell evaluation [2, 18]: C | Sunlight exposure (80 MJ) Appearance [3, 19]: C | Sunlight exposure (80 MJ) Residual yield [%] [3, 19]: 92.3% | Sunlight exposure (80 MJ) Appearance [3, 20]: C | Sunlight exposure (80 MJ) Residual yield [%] [3, 20]: 71.7% | Sunlight exposure (80 MJ) Appearance [3, 21]: C | Sunlight exposure (80 MJ) Residual yield [%] [3, 21]: 90.8% | Sunlight exposure (80 MJ) Appearance [3, 22]: C | Sunlight exposure (80 MJ) Residual yield [%] [3, 22]: 82.1% | Sunlight exposure (80 MJ) Appearance ([3]; drug Salicylic acid 0.1): C | Sunlight exposure (80 MJ) Residual yield [%] ([3]; drug Salicylic acid 0.1): 92.2%
